Patent US12427180B2, “Treatment of respiratory tract diseases and infections with ascorbic acid compositions” (RENOVION, INC., priority 2016, dated 2025)

Tests used:
[1] = Stability: oxidized glutathione and reduced ascorbic acid after storage; format: physicochemical; conditions: ascorbic acid only, pH not given; Ambient; stored at 5° C. for 4 weeks
Description: The amount of glutathione and ascorbic acid oxidiation were determined for Composition 1 at pH 5.5, 6.0, and 6.5. Oxidized glutathione is associated with the generation of protein-carbonyls via glutathionlyation, which occurs when oxidized glutathione dissociates and attaches to proteins. The % oxidized glutathione (% GSSG) was determined after 4 weeks of storage of Composition 1 at pH 5.5, 6.0, and 6.5 under N2-sparged and ambient conditions. Additionally, when ascorbic acid is oxidized into dehydroascorbate (DHA), DHA can break down and result in the formation of protein adducts in process called ascorbylation (Simpson et al., Biochim biophys Acta 2000; 1501:12-24). The % reduced ascorbic acid maintained in Composition 1 (% ASC) was determined after 4 weeks of storage of Composition 1 at pH 5.5, 6.0, and 6.5 under N2-sparged (anaerobic) and ambient conditions. Specifically, nitrogen-sparged samples were mixed under anaerobic conditions sparged with nitrogen, and the samples were packaged using nitrogen bubbling. Ambient samples were mixed under room air conditions and were not bubbled with nitrogen. The formulations were stored at 5° C. for 4 weeks, and the percent of oxidized glutathione (GSSG) and ascorbic acid (ASC) was measured for each sample according to standard techniques.

[2] = test system: Pseudomonas aeruginosa (Schroeter) Migula (ATCC BAA-47 (PAO1)); assay: MIC against Pa BAA-47 (PAO1); format: cell-based; conditions: Anaerobic (+nitrate), 12 hrs
Description: (§1) The MICs of Composition 1 (glutathione, ascorbic acid, and HCO3); glutathione and ascorbic acid; and HCO3 were tested against clinical isolates, including Burkholderia cepacia, Pseudomonas aeruginosa (Schroeter) Migula (ATCC 27853), Pseudomonas aeruginosa (Schroeter) Migula (ATCC 9027), Pseudomonas aeruginosa (Schroeter) Migula (ATCC BAA-2114), Klebsiella pneumonia, methicillin resistant Staphylococcus aureus; laboratory strains of Moraxella catarrhalis, Stenotrophomonas maltophilia, Acinetobacter baumannii; and eight samples of mucoid and nonmucoid Pseudomonas aeruginosa clinical isolates from human lung. The MIC for laboratory clinical isolate Pseudomonas aeruginosa (Schroeter) Migula (ATCC BAA-47 (PAO1)) was also tested. The MICs were determined under anaerobic conditions on media supplemented with nitrate, under aerobic conditions supplemented with nitrate, or under ambient conditions.
(§2) The clinical isolates were inoculated in duplicate on agar plates overnight under anaerobic conditions at 36° C.±1.0° C. in a 96-well plate. Laboratory isolates of Burkholderia cepacia were also grown in duplicate overnight under aerobic conditions at 36° C.±1.0° C. in a 96-well plate. […] MICs were determined via visual inspection and OD620.

[3] = test system: Pa UAB-NM-1 (nonmucoidy P. aeruginosa clinical isolate from lung); assay: MIC against Pa UAB-NM-1; format: cell-based, Pseudomonas aeruginosa; conditions: Anaerobic (+nitrate), 12 hrs
Description: as §1, §2

[4] = test system: Pa UAB-M-2 (mucoidy P. aeruginosa clinical isolate from lung); assay: MIC against Pa UAB-M-2; format: cell-based, Pseudomonas aeruginosa; conditions: Anaerobic (+nitrate), 12 hrs
Description: as §1, §2

[5] = test system: Pa UAB-NM-3 (nonmucoidy P. aeruginosa clinical isolate from lung); assay: MIC against Pa UAB-NM-3; format: cell-based, Pseudomonas aeruginosa; conditions: Anaerobic (+nitrate), 12 hrs
Description: as §1, §2

[6] = test system: Pa UAB-NM-5 (nonmucoidy P. aeruginosa clinical isolate from lung); assay: MIC against Pa UAB-NM-5; format: cell-based, Pseudomonas aeruginosa; conditions: Anaerobic (+nitrate), 12 hrs
Description: as §1, §2

[7] = test system: MRSA UAB-1; assay: MIC against MRSA UAB-1; format: cell-based, Staphylococcus aureus; conditions: Anaerobic (+nitrate), 12 hrs
Description: as §1, §2

[8] = test system: MRSA UAB-3; assay: MIC against MRSA UAB-3; format: cell-based, Staphylococcus aureus; conditions: Anaerobic (+nitrate), 12 hrs
Description: as §1, §2

Row | SMILES | % ASC (reduced ascorbic acid maintained) [1] [%] | MIC [2] | MIC [3] | MIC [4] | MIC [5] | MIC [6] | MIC [7] | MIC [8]
1 | O=C1O[C@H]([C@@H](O)CO)C(O)=C1O [Ascorbic Acid Only, ascorbic acid] | 77.88 |  |  |  |  |  |  | 
2 | O=C([O-])O.[Na+] [HCO3, sodium bicarbonate] |  | 12.5% (12 | 12.5%(12 | 12.5%(12 | 12.5% (12 | 12.5% (12 | 25% (12 | 25% (12
